This is an account of results in patent US20230009608A1, “GRK2 INHIBITORS AND USES THEREOF” (Cygnal Therapeutics, Inc., priority 2020, published 2023).

In experiment [1] the target is T1, GRK2 (Homo sapiens, UniProt P25098).
T1 construct: purchased SignalChem A14-10G
T1 sequence (P25098 1-689): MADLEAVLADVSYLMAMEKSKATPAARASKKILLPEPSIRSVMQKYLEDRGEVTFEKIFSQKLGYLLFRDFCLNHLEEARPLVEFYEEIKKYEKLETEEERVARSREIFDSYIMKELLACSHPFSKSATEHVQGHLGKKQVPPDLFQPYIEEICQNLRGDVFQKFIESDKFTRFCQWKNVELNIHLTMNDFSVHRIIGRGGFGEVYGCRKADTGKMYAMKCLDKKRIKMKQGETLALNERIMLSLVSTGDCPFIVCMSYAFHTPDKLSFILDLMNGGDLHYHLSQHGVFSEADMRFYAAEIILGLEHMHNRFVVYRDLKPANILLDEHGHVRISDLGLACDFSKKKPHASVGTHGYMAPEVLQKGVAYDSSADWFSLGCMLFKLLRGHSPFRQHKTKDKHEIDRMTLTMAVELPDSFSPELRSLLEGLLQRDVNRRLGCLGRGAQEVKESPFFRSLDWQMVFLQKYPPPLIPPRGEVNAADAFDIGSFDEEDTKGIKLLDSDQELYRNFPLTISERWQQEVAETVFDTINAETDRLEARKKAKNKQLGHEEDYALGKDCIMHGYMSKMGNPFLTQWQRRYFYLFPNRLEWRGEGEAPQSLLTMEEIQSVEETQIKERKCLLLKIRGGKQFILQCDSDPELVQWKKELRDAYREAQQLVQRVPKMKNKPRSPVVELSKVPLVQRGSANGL
The experiment can be described thus: GRK2 Inhibition Assay (TR-FRET, Example 7). The experiment is classed as biochemical. The procedure: Enzyme GRK2 (1 nM final concentration) was diluted in 25 mMv HEPES, 10 mM MgCl2, 2 mM DTT, 0.01% Tween-20, and 1 mM EGTA. Then the GRK2 mixture was added into ProxiPlate-384 white plate and pre-incubated for 30 min with test compounds at room temperature. ATP (7 μM final concentration) and Ulight TopoIIα (50 nM final concentration) were added into the assay plate to initiate the reaction and the mixture was incubated at room temperature for 90 min. Then, Eu anti-TopoIIα (0.12 nM final concentration), BSA (0.01% final concentration), and EDTA (11 mMv final concentration) in LANCE assay buffer were added into each well. After 60 min incubation time at room temperature, TR-FRET signal was measured by EnVision plate reader.
Background: Time-resolved FRET reads energy transfer from a long-lived donor to a nearby acceptor.

Experiment [2] deals with T1, GRK2. The experiment can be described thus: ADPGlo GRK2 Inhibition Assay (Example 8). The following applies: Enzyme Assay A, ADPGlo (Example 8); read-out: A: Enzymatic GRK2: IC50 (nM) (Example 8). Type of experiment: biochemical. The method in brief: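 GRK2 (15 nM 2× enzyme solution) was preincubated 15 min with compound, then reacted 180 min at room temperature with 2× mix of 20 μM ATP plus GRKtide in HEPES pH 7.5, MgCl2, Tween-20, DTT. ADP was detected by ADP-Glo luminescence. Percent inhibition was normalised to enzyme and no-enzyme controls, with dose-response curves from threefold dilutions starting at 100 μM.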
In general terms: In ADP-Glo the light output rises with the ADP produced.

Experiment [3] deals with PAXF1657 control empty vector cell line. The experiment can be described thus: 7-day proliferation assay, PAXF1657 control empty vector cell line (Example 9). The experiment is classed as cell-based. Conditions: 168 h; Cell Line: PAXF1657 empty vector (EV) cell line; 7-day; read-out: C: 7-day proliferation assay: IC50 GeoMean. The method, boiled down:
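PAXF1657 pancreatic cancer cells (GRK2-overexpressing vs empty vector; CRISPR GRK2 knockout vs non-targeting control) were seeded at 500 cells/well in RPMI1640/10% FBS, then given a 10-point series, 30 μM-0.0002 μM in 0.3% DMSO. Medium and compound were refreshed after 3 days; CellTiter-Glo luminescence was read at day 7.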

The mark [4] stands for this setting: Enzyme Assay B, TR-FRET (Example 7), read-out: B: Enzymatic GRK2: IC50 (nM) (Example 7).
The mark [5] stands for this setting: TR-FRET GRK2 enzyme assay, read-out: B: Enzymatic GRK2: IC50 (nM) (Example 7).

Each structure is given as a SMILES string. Bounds are passed on as bounds.

As for `CNCCn1c(CNc2cccc(C(=O)NCc3c(F)cccc3F)c2)nnc1-c1ccncn1`, the IC50 on GRK2 [1] (setting [4]) is 1400 nM. On the same count and under the same terms, the same measure for `CN(C)CCCn1c(CNc2cccc(C(=O)NCc3c(F)cccc3F)c2)nnc1-c1ccncn1`: 170 nM; for `CNCCCn1c(CNc2cccc(C(=O)NCc3c(F)cccc3F)c2)nnc1-c1ccncn1`: 660 nM; for `O=C(NCc1c(F)cccc1F)c1cccc(NCc2nnc(-c3ccncn3)n2CCCO)c1`: 47 nM. Same read-out and setting: the result for `CNc1cc(-c2nnc(CNc3cccc(C(=O)NCc4c(F)cccc4F)c3)n2C)ncn1` reads 4400 nM. Regarding `Cn1c(CNc2cccc(C(=O)NCc3cccc(F)c3F)c2)nnc1-c1ccncn1`, the IC50 on GRK2 [2] is 16 nM; in experiment [3], more than 10000 nM. For `COc1cccc(CNC(=O)c2cccc(NCc3nnc(-c4ccncn4)n3C)c2)c1F`, the IC50 on GRK2 [2] is 10 nM; in experiment [3], more than 10000 nM. For `COc1ccccc1CNC(=O)c1cccc(NCc2nnc(-c3ccncn3)n2C)c1` the same measures were 20 nM and 1900 nM. As for `CC(NC(=O)c1cccc(NCc2nnc(-c3ccncn3)n2C)c1)c1nccn1C` (centres unmarked), the IC50 is 24 nM on GRK2 [2] and 591 nM in experiment [3]. For `CCn1ncnc1CNC(=O)c1cccc(NCc2nnc(-c3ccncn3)n2C)c1` the same measures were 370 nM and more than 10000 nM. On to `Cc1ncccc1CNC(=O)c1cccc(NCc2nnc(-c3ccncn3)n2C)c1`, for which the IC50 on GRK2 [2] turned out to be 16 nM; in experiment [3] it was 1490 nM.

As for `O=C(NCCc1cccc(OS(=O)(=O)F)c1)c1cccc(NCc2nnc(-c3ccncc3)[nH]2)c1`, the IC50 against GRK2 [1] turned out to be 210 nM. Take `O=C(NC1(c2ccccc2)CCOCC1)c1cccc(NCc2nnc(-c3ccncc3)[nH]2)c1`: the IC50 at GRK2 [1] (setting [4]) was 330 nM. Turning to `O=C(NC1(c2ccccc2)CCOCC1)c1cccc(NCc2nnc(-c3ccncc3)n2CCO)c1`, on GRK2 [1] (setting [4]), the IC50 stood at 130 nM. Same read-out and setting: the result for `Cn1c(CNc2cccc(C(=O)N[C@H]3CCOc4ccccc43)c2)nnc1-c1ccncc1Cl` reads 170 nM. The same measure, in the same setting: the same measure for `CN(Cc1cccnc1C(F)(F)F)C(=O)c1cccc(NCc2nnc(-c3ccncn3)n2C)c1`: more than 10000 nM. With `Cn1ccc(CNC(=O)c2cccc(NCc3nnc(-c4ccncn4)n3C)c2)n1`, the IC50 at GRK2 [2] was 60 nM; in experiment [3], 1290 nM. `Cn1c(CNc2cccc(C(=O)NCc3cc(Cl)ccn3)c2)nnc1-c1ccncn1`: the values for the IC50 (on GRK2 [2]; in experiment [3]) were 45 nM and more than 30000 nM, respectively. For `Cn1c(CNc2cccc(C(=O)NCc3cnccn3)c2)nnc1-c1ccncn1` the same measures were 37 nM and more than 30000 nM.

Turning to `CC(NC(=O)c1cccc(NCc2nnc(-c3ccncn3)n2C)c1)c1cn[nH]c1` (centres unmarked), the IC50 at GRK2 [2] was 13 nM; in experiment [3], 16800 nM. In the case of `Cc1nc(C(C)NC(=O)c2cccc(NCc3nnc(-c4ccncn4)n3C)c2)no1` (centres unmarked), the IC50 at GRK2 [2] was 67 nM; in experiment [3], more than 30000 nM. As for `Cc1cc(CNC(=O)c2cccc(NCc3nnc(-c4ccncn4)n3C)c2)nn1C`, the IC50 at GRK2 [2] was 41 nM; in experiment [3], more than 30000 nM. For `Cn1c(CNc2cccc(C(=O)NCc3ccnnc3)c2)nnc1-c1ccncn1` the same measures were 43 nM and more than 30000 nM.

For the compound `Cn1c(CNc2cccc(C(=O)NCc3cocn3)c2)nnc1-c1ccncn1`, the values for the IC50 (on GRK2 [2]; in experiment [3]) were 27 nM and more than 30000 nM, respectively.

On to `Cn1c(CNc2cccc(C(=O)NCc3cscn3)c2)nnc1-c1ccncn1`, for which the results for the IC50 (on GRK2 [2]; in experiment [3]) were 13 nM and more than 30000 nM, respectively. For `Cn1c(CNc2cccc(C(=O)NCc3ccon3)c2)nnc1-c1ccncn1` the same measures were 23 nM and more than 30000 nM.

Regarding `Cn1c(CNc2cccc(C(=O)NCc3nc(C4CC4)no3)c2)nnc1-c1ccncn1`, the IC50 at GRK2 [2] came to 27 nM; in experiment [3], 5750 nM.

Consider `Cn1cc(-c2cc(CNC(=O)c3cccc(NCc4nnc(-c5ccncn5)n4C)c3)ccn2)cn1`, for which the IC50 on GRK2 [2] is 17 nM; in experiment [3], more than 30000 nM. For `Cn1cc(CNC(=O)c2cccc(NCc3nnc(-c4ccncn4)n3C)c2)cn1` the same measures were 36 nM and 9770 nM. `CCc1cnccc1CNC(=O)c1cccc(NCc2nnc(-c3ccncn3)n2CCO)c1`: at GRK2 [1] (setting [4]), the IC50 turned out to be 0.82 nM. In the case of `CCc1cnccc1CNC(=O)c1cccc(NCc2nnc(-c3ccncn3)n2CCCO)c1`, on GRK2 [1] (setting [4]), the IC50 amounted to 5.5 nM.

In the case of `CCc1cnccc1CNC(=O)c1ccnc(NCc2nnc(-c3ccncn3)n2C)c1`, the IC50 on GRK2 [1] (setting [4]) stood at 15 nM. In the case of `Cn1c(CNc2cc(C(=O)NCc3cccc4c3OCC4)ccn2)nnc1-c1ccncn1`, at GRK2 [1] (setting [4]), the IC50 came to 12 nM.

With `O=C(NC1(c2ccccc2)CCOCC1)c1cccc(NCc2nnc(-c3ccncn3)n2CCO)c1`, at GRK2 [1] (setting [4]), the IC50 turned out to be 6.3 nM. Consider `COc1ncccc1CNC(=O)c1cccc(NCc2nnc(-c3ccncn3)n2CCO)c1`, for which, at GRK2 [1] (setting [4]), the IC50 amounted to 2.4 nM.

Regarding `CNCCCn1c(CNc2cccc(C(=O)NCc3cccnc3C(F)(F)F)c2)nnc1-c1ccncn1`, the IC50 on GRK2 [1] (setting [4]) is 280 nM. `COCCOc1ccc(CNC(=O)c2cccc(NCc3nnc(-c4ccncn4)n3C)c2)cc1`: the values for the IC50 (at GRK2 [2]; in experiment [3]) were 20.4 nM and more than 14200 nM, respectively. In the case of `C#Cc1cc(CNC(=O)c2cccc(NCc3nnc(-c4ccncc4)[nH]3)c2)cc(OS(=O)(=O)F)c1`, the IC50 stood at 34.9 nM at GRK2 [2] and 10800 nM in experiment [3]. `C#Cc1ccc(OS(=O)(=O)F)cc1CNC(=O)c1cccc(NCc2nnc(-c3ccncc3)[nH]2)c1`: the IC50 at GRK2 [2] amounted to 28.4 nM; in experiment [3], 7440 nM. For `Cc1ccc2c(c1)OCC[C@H]2NC(=O)c1cccc(NCc2nnc(-c3ccncn3)n2C)c1` the same measures were 9.99 nM and 648 nM. Consider `Cc1ccc2c(c1)OCC[C@@H]2NC(=O)c1cccc(NCc2nnc(-c3ccncn3)n2C)c1`, for which the results for the IC50 (on GRK2 [2]; in experiment [3]) were more than 1000 nM and 2580 nM, respectively. As for `Cn1c(CNc2cccc(C(=O)N[C@H]3COc4c(Cl)cccc43)c2)nnc1-c1ccncn1`, at GRK2 [1] (setting [5]), the IC50 turned out to be 7.8 nM. On to `Cn1c(CNc2cccc(C(=O)N[C@@H]3COc4c(Cl)cccc43)c2)nnc1-c1ccncn1`, for which the IC50 at GRK2 [1] (setting [5]) amounted to 28 nM. Consider `Cn1c(CNc2cccc(C(=O)N[C@H](C#N)c3c(F)cccc3Cl)c2)nnc1-c1ccncn1`, for which the IC50 on GRK2 [1] (setting [5]) stood at 5.7 nM. For `Cc1cccnc1CNC(=O)c1cccc(NCc2nnc(-c3ccncn3)n2C)c1` [drawing 264], the IC50 on GRK2 [2] stood at 14 nM; in experiment [3], 1610 nM. Regarding `Cn1c(CNc2cccc(C(=O)NCc3ccncc3Cl)c2)nnc1-c1ccncn1` [drawing 276], the IC50 on GRK2 [2] turned out to be 9.1 nM; in experiment [3] it was 4060 nM. For `CN1CCC(NC(=O)c2cccc(NCc3nnc(-c4ccncn4)n3C)c2)c2ccccc21` (centres unmarked) [drawing 321] the same measures were 37 nM and 9340 nM. As for `Cn1c(CNc2cccc(C(=O)NCc3ccnc(OCC(F)(F)F)c3)c2)nnc1-c1ccncn1` [drawing 339], the IC50 on GRK2 [2] was 17 nM; in experiment [3], 3760 nM. For `C[C@H](NC(=O)c1cccc(NCc2nnc(-c3ccncn3)n2C)c1)c1cccnc1` [drawing 345] the same measures were 420 nM and more than 8570 nM.

With `Cn1c(CNc2cccc(C(=O)NCc3cccc4cccnc34)c2)nnc1-c1ccncn1` [drawing 359], the values for the IC50 (on GRK2 [2]; in experiment [3]) were 61 nM and 3640 nM, respectively.

As to `COc1cccc(C(C)NC(=O)c2cccc(NCc3nnc(-c4ccncn4)n3C)c2)c1` (centres unmarked) [drawing 381], the figures for the IC50 (on GRK2 [2]; in experiment [3]) were 12 nM and 377 nM, respectively.

On to `CC1Cc2cc(CNC(=O)c3cccc(NCc4nnc(-c5ccncn5)n4C)c3)ccc2O1` (centres unmarked) [drawing 401], for which the IC50 stood at 22 nM on GRK2 [2] and 3370 nM in experiment [3]. For `Cn1ccnc1C(NC(=O)c1cccc(NCc2nnc(-c3ccncc3)[nH]2)c1)C1CC1` (centres unmarked) [drawing 485], the IC50 on GRK2 [2] was 10 nM; in experiment [3] it was 5510 nM.
